Laboratory results from patent US20160319277A1, “METHODS OF IMPROVED PROTEIN PRODUCTION USING MIRNAs AND SIRNAs” (THE JOHNS HOPKINS UNIVERSITY, priority 2015, published 2016).

Test system: HEK 293 cell lines expressing luciferase, GPC3-hFc, NTSR1-GFP, SERT-GFP
Assay: Validation transfection of siRNAs against ten selected genes in four HEK 293 cell lines expressing different reporter proteins
Format: cell-based, human
Conditions: 40 nM, 1 representative siRNA per gene; for expression of reporter proteins: luciferase, GPC3-hFc, NTSR1-GFP, SERT-GFP
Experimental: Ten targeted genes were selected and tested in four HEK 293 cell lines expressing different reporter proteins, glycan-3 hFc-fision protein (GPC3-hFc), neurotensin receptor type 1-GFP (NTSR1-GFP) and serotonin transporter-GFP (SERT-GFP), using 1 representative siRNA for each gene. Transfection was performed in 12-well plate format. 500 μL of serum free DMEM media containing siRNA and Lipofectamine™ RNAiMax was incubated in each well for 20 min at ambient temperature and 500 μL DMEM containing 20% FBS and cells was then added for transfection. The final siRNA concentration in each well was 40 nM. Lipofectamine™ RNAiMax volume and cell seeding number in each well have been optimized for each cell line (Table 2).
5 days after transfection, clarified cell culture supernatant was used for determination of GPC3-hFc concentration by ELISA and cells were detached and counted by trypan blue exclusion using a CEDEX™ cell quantification system (Roche, Mannheim, Germany). AffiniPure™ F(ab′)2 Fragment Goat Anti-Human IgG (min X Bov, Ms, Rb Sr Prot, Cat. 109-006-170, Jackson Immunology, 5 μg/mL in PBS) was used to coat a 96-well plate (50 μL per well) at 4° C. overnight. After blocking the plate with 2% BSA in PBS, 50 μl of pre-diluted cell culture supernatant was added, and the plate was incubated at room temperature for 1 h to allow binding to occur. After the plate was washed twice with PBS containing 0.05% Tween 20, Peroxidase-conjugated AffiniPure™ Goat-anti-human IgG (Cat. 109-035-098, Jackson Immunology) was added at 1:4000 dilution (50 μL/well). Following incubation at room temperature for 1 hr, the plate was washed 4 times and signals were detected with Peroxidase Substrate System (KPL).
3 days after transfection, cells were induced with 1 μg/mL tetracycline. 24 hours later, cells from each well were detached with non-enzymatic cell dissociation buffer (Gibco, Cat. No. 13150-016) and washed twice with cold PBS. Cell densities were adjusted to 0.5 million cells/ml with PBS and then subjected to flow cytometry analysis. Green fluorescence was measured with Guava Easycyte 5HT™ and Incyte™ software (Millipore). The green fluorescence signal and cell gating were adjusted using uninduced T-REx-293-NTSR1-GFP cells, with more than 99.5% of the cells in low fluorescence range (<100). The setting was kept the same for all cell samples.

| Substance | viable cell number | expression of reporter proteins |
| --- | --- | --- |
| INTS1 siRNA: 1 representative siRNA for gene INTS1 used in validation transfection; sequence not stated (guide AGAUCUUUGUCAAGGUGUATT; other strand without entry, further chemistry not given here; listed as Homo sapiens) | significantly reduced viable cell number | consistently improved |
| PPP2R1A siRNA: 1 representative siRNA for gene PPP2R1A used in validation transfection; sequence not stated (guide CUUCGACAGUACUUCCGGATT; other strand without entry, further chemistry not given here; listed as Homo sapiens) | minimal negative effects | consistently improved |
